According to US10660935B2, “Methods for ameliorating memory impairment in a memory disorder caused by neuronal cell death or Abeta aggregation using a peptide” (JAPAN BIO PRODUCTS Co., Ltd., priority 2017, dated 2020):

Tests used:
[1] = test system: Aβ25-35-treated murine cerebral cortical neural cells; assay: Quantitative experiment for dendritic elongation; type: cell-based, ddY mouse; details: compared with Vehicle
Experimental: (§1) Murine cerebral cortical neural cells were prepared by the following method. Fetuses extracted from a 14-day […] ddY mouse (Japan SLC, Shizuoka) were washed with PBS, then decapitated, and added in a medium made for primary culture [12% equine serum (Life Technologies), 2 mM L-glutamic acid, and 0.6% glucose dissolved in Neurobasal media (Life Technologies, Carlsbad, Calif., USA)]. Only cerebral cortex was isolated in the medium under a stereomicroscope (SZ-61, Olympus, Tokyo).
(§2) Cerebral cortex was cut into about 1 mm-sized cubes in a safety cabinet. Centrifugation was performed at 700 rpm for 3 minutes, then the supernatant was removed, and to the precipitate was added 2 mL of 0.05% trypsin-0.53 mM EDTA solution (Life Technologies) to make a suspension. The suspension was incubated at 37° C. for 15 minutes with stirring for every 5 minutes, loaded with 4 mL of the medium, centrifuged at 700 rpm for 3 minutes to remove the supernatant, and to the precipitate was added 2 mL of 600 U/mL DNase I (Wako Pure Chemical Co., Ltd)-0.03% trypsin inhibitor (Life Technologies)-PBS solution to make a suspension.
(§3) The suspension was further incubated at 37° C. for 15 minutes with stirring for every 5 minutes, loaded with 4 mL of the medium, and centrifuged at 700 rpm for 3 minutes. The sediment was loaded with 4 mL of a calcium-magnesium-free Hank's balanced salt solution (HBSS), and centrifuged at 700 rpm for 3 minutes. 4 mL of the medium was added to the sediment.
The sediment loaded with the medium was gently suspended with a Pasteur pipette in which its tip had been heated and smoothed, until the cell clumps were invisible, and then filtrated with a 70 μm nylon cell strainer (Falcon, N.J., USA). Cell culture was performed in an 8-well chamber slide (falcon). Cells were seeded into the one coated the day before [in which Poly-D-Lysine (PDL, Wako Pure Chemical Co., Ltd) diluted with PBS to 0.005 mg/mL was plated and incubated at 37° C.; on the day of culture, it was washed twice with sterilized purified water.] Culture was started at 37° C. and 10% CO2 under saturated vapor.
In quantitative experiment for dendritic elongation, the medium was all changed with a fresh medium containing B-27 supplement (Invitrogen) instead of equine serum 5 hours and 3 days after start of culture. At medium change after 3 days, the pre-aggregated partial sequence fragment of amyloid beta (Aβ25-35) was added up to 10 μM. After another 3 days, each peptide or solvent was added when the medium was all changed into a fresh one, and after another 4 days, immunostaining was performed.
Immunostaining for quantifying dendritic elongation was performed as follows. After the end of the drug treatment term, the medium was removed and the cells were washed with PBS, added with 4% paraformaldehyde (PFA, Wako Pure Chemical Co., Ltd)-PBS solution, left standing at room temperature for an hour, and fixed. Wash with 0.3% triton X-100 (Wako Pure Chemical Co., Ltd)-PBS solution for 5 minutes was performed twice. Then, a primary antibody solution (0.3% triton X-100-PBS solution, 1% normal goat serum [Wako Pure Chemical Co., Ltd], a primary antibody) was added, and reacted at 4° C. overnight.
For the primary antibody, rabbit anti-MAP2 polyclonal antibody (1:2000) (Abcam, Cambridge, UK) was used. The next day, the primary antibody solution was removed; wash was performed twice with 0.3% triton X-100-PBS solution for 5 minutes; and then a secondary antibody solution [0.3% triton X-100-PBS solution, Alexa Fluor 488-labeled goat anti-rabbit IgG antibody (1:200) (Molecular Probes, Eugene, Oreg., USA)] was added, and reacted under shading at room temperature for 2 hours. After the reaction, the secondary antibody solution was removed, and the cells were washed twice with PBS for 5 minutes, stained for nuclei with DAPI staining, and then embedded with Aqua-Poly/Mount (Polysciences, Warrington, USA). […]

[2] = test system: Aβ25-35-treated murine cerebral cortical neural cells; assay: Quantitative experiment for presynaptic density; type: cell-based, ddY mouse; details: 21-day culture
Experimental: as §1, §2, §3
The sediment loaded with the medium was gently suspended with a Pasteur pipette in which its tip had been heated and smoothed, until the cell clumps were invisible, and then filtrated with a 70 μm nylon cell strainer (Falcon, N.J., USA). Cell culture was performed in an 8-well chamber slide (falcon). […]
Immunostaining for quantifying presynaptic density was performed as follows. […]

5XFAD mice = assay: Object recognition memory test; type: in vivo, mouse; details: continuous intraventricular infusion for 28 days keeping 10 nM in cerebrospinal fluid, 24 hours interval between training and testing, P<0.05
From the text: Alzheimer's disease model mice: Transgenic mice that are animal models for Alzheimer's disease (5XFAD) were obtained from the Jackson Laboratories (Bar Harbor, Me., USA). 5XFAD mice overexpress human APP695 cDNA having mutations of Swedish (K670N and M671L), Florida (I716V), and London (V717I), and human PS1 cDNA (mutations at M146L and L286V) under transcriptional control of the neuron-specific murine Thy-1 promoter (Oakley, H. et al., J Neurosci, 26, 10129-10140, 2006). Those were maintained by crossing B6/SJL F1 breeders with hemizygous transgenic mice. […]
GPPGPAG (SEQ ID NO: 1) was dissolved in an artificial cerebrospinal fluid, and an osmotic minipump model 1004 (ALZET Osmotic Pumps, Cupertino, USA) containing the solution inserted and fixed into the right lateral ventricle of each 5XFAD mouse to inject the solution into the lateral ventricle continuously for 28 days. […] Specifically, from a peptide flow of 0.11 μL/h from the pump and a production of cerebrospinal fluid of 18 μL/h in the mouse, the concentration of the peptide solution was calculated such that the peptide concentration in the murine cerebrospinal fluid would be kept at 10 nM (which was an effective concentration in the cell experiments), and the solution prepared thereby was loaded into the pump. […]

[3] = posttreatment with 1 nM peptide for 4 days after 10 μM Aβ25-35 for 3 days
[4] = posttreatment with 10 nM peptide for 4 days after 10 μM Aβ25-35 for 3 days

Substance	density of dendrites (length of MAP2-positive dendrites per neural cell) [1, 3]	density of dendrites (length of MAP2-positive dendrites per neural cell) [1, 4]	presynaptic density on dendrites (synaptophysin-positive area per dendrite length) ([2]; posttreatment with 1 nM, 10 nM and 100 nM, 10 μM Aβ25-35 for 3 days, peptide for 4 days)	presynaptic density on dendrites (synaptophysin-positive area per dendrite length) ([2]; posttreatment with 10 nM, 10 μM Aβ25-35, compared with Vehicle)	presynaptic density on dendrites (synaptophysin-positive area per dendrite length) ([2]; posttreatment with 100 nM, 10 μM Aβ25-35, compared with Vehicle)	exploratory preferential index at the testing stage relative to the training stage (5XFAD mice)
GPPGPA: comparison peptide of amino acid sequence GPPGPA (SEQ ID NO: 4) (P4)	neither treatment with 1 nM nor 10 nM was any effect observed	neither treatment with 1 nM nor 10 nM was any effect observed	–	–	–	–
GPPGPAG (P1)	–	significant increase in density of dendrites	concentration-dependent increase in presynaptic density	significant increase	significant increase	significantly increased
GPPGPP: comparison peptide of amino acid sequence GPPGPP (SEQ ID NO: 3) (P3)	neither treatment with 1 nM nor 10 nM was any effect observed	neither treatment with 1 nM nor 10 nM was any effect observed	–	–	–	–
GPPGPPG (P2)	neither treatment with 1 nM nor 10 nM was any effect observed	neither treatment with 1 nM nor 10 nM was any effect observed	–	–	–	–
PPGPAG: comparison peptide of amino acid sequence PPGPAG (SEQ ID NO: 5) (P5)	neither treatment with 1 nM nor 10 nM was any effect observed	neither treatment with 1 nM nor 10 nM was any effect observed	–	–	–	–
